Test results taken from patent publication US10822317B2, “Methods and compositions for wound healing” (QBiotics Limited, priority 2013, dated 2020).

Test system: TGF-β1-stimulated dermal fibroblasts
Test: Differentiation of adult dermal fibroblasts into myofibroblasts (α-SMA expression)
Assay type: cell-based, human
Experimental: The effects of Compounds […] and 37 on dermal fibroblast differentiation to myofibroblasts was examined by the extent of α-SMA expression by TGF-βi-stimulated dermal fibroblasts.
Following trypsinization, fibroblasts were seeded in 8-well, Permanoxchamber slides (VWR International) in DMEM medium, containing antibiotics, 2 mM L-glutamine and 10% foetal calf serum (250 μL, all purchased from Invitrogen); at a cell density of 2.5×10^4 cells/well and maintained at 37° C. in 5% CO2/95% air for 48 h.
At 48 hr, fibroblasts were growth-arrested in serum-free DMEM for 48 hr and then replaced with serum-free DMEM (250 μL), containing Compounds 1 or 37 at concentrations of 0, 0.001, 0.01, 0.1, 1.0 and 10.0 μg/mL (3 wells/concentration/compound) and TGF-β1 (10 ng/ml, Peprotech). Fibroblasts were maintained at 37° C. in 5% CO2/95% air for 72 hr.
At 72 hr, chamber slide wells were washed with PBS (×1, 250 μL) and fixed in 4% paraformaldehyde (100 μL/well) for 10 min. The chamber slide wells were then washed again with PBS (×1, 250 μl), treated with 0.1% Triton X-100 in PBS (100 μL, Sigma) for 5 min and re-washed with PBS (×1, 250 μL). Wells were blocked with 1% BSA in PBS (250 μL, Sigma) for 1 h and washed (×3) in 0.1% BSA/PBS.
Wells were incubated with monoclonal mouse anti-human α-SMA, clone 1A4 (1:100, 150 ul, Sigma) at 4° C. overnight, washed (×6) in 0.1% BSA/PBS and incubated with Alexa Fluor 488 goat anti-mouse IgG antibody (1:1000, 250 μL, Invitrogen), at room temperature for 1 h, under darkness. Chamber slides were washed (×6) in 0.1% BSA/PBS and counterstained with Hoescht 33258 solution for 30 min under darkness (1:2000, 250 μL, Sigma). Chamber were subsequently removed for slides and treated with Fluorsave (Santa Cruz) for 10 min under darkness. Slides were viewed by fluorescence microscopy (Leica Microsystem), with digital images being capturedat ×200 magnification. Digital images were processed using HC Image J Software.

With `CC=C(C)C(=O)OC1C(C)C2(O)C(C3OC3(CO)C(O)C3(O)C(=O)C(C)=CC32)C2C(C)(C)C12OC(=O)C(C)CC` (stereo not drawn) [Compound 1, 12-tigloyl-13-(2-methylbutanoyl)-6,7-epoxy-4,5,9,12,13,20-hexahydroxy-1-tigliaen-3-one] the “differentiation of TGF-β1-treated adult dermal fibroblasts into myofibroblasts” value (0.001 to 10.0 μg/mL, 72 hr) was “affected differentiation into myofibroblasts in a concentration-dependent manner”, the “α-SMA stress fibre formation and polygonal cellular morphology (myofibroblast differentiation)” value (TGF-β1 10 ng/ml, 72 hr, 0.1 μg/mL) was “lacked the α-SMA stress fibre formation and the typical polygonal cellular morphology” and the myofibroblast morphology (between 1 and 10 μg/mL) was “subtle alterations in myofibroblast morphology”.
